Source: US4764525A, “N-1H-tetrazol-5-ylbenzamides having use as antiallergy and antiinflammatory agents” (Warner-Lambert Company, priority 1987, dated 1988)

System: human basophils
Assay: HHB assay: inhibition of histamine release from human basophils
Format: cell-based
Conditions: Anti-IgE stimulus, tested at 33 μM
Text: The HHB assay quantitates active histamine release and its inhibition by drugs, from basophils of human blood. Thus, the assay provides evaluation of the compounds of formula I for treating the conditions or diseases as is the present invention. As described herein the assay includes modifications of the method described by R. P. Siroganian in "An Automated Continuous-Flow System for the Extraction and Fluorometric Analysis of Histamine," Anal. Biochem., 57, 383-394 (1974).
Seventy ml of blood are drawn from allergic donors (chosen on the basis of adequate histamine induced by a challenge), using standard venipuncture methods, into 10 ml Vacutainers with 0.08 ml/tube 15% EDTA in water as anticoagulant. The blood samples are placed briefly on a rotary mixer. All glassware contacting the blood is siliconized. The blood is aliquoted into three plastic 50 ml centrifuge tubes and the volume is noted. Hespan (hydroxy ethyl starch), 0.5 ml per 1.0 ml of blood, is added. The tubes are inverted several times to mix and are left undisturbed at room temperature until a sharp separation is observed between the settled red cells and the leukocyte and platelet-rich plasma. This usually occurs within 35-45 minutes.
The plasma fraction is pipetted off and placed into two clean plastic 50 ml centrifuge tubes. The tubes are centrifuged for 12 minutes at 4° C. in a a 100 ml volumetric flask and 0.5 ml DMSO is added. […] If the compound is in solution, distilled water is used to bring it up to 100 ml total volume. If the drug is not in solution, 0.2 ml 1N NaOH (or HCl) is added, and then distilled water is added to yield 100 ml total solution. Five ml of the stock solution is diluted (1:2) with 5 ml of two times concentrated HACM buffer to yield the stock working concentration of 150 μM. When added to the cells and stimulus, a final test concentration of 100 μM drug results (400 μl drug, 100 μcells and 100 μchallenge agent or vehicle). Further dilutions are made with HACM buffer for 33, 10, 3.3, 1.0 μM, etc.
Short ragweed and house dust extracts (Greer Laboratories, Inc.) are supplied as aqueous extracts in stock concentrations of 40,000 and 10,000 protein nitrogen units per milliliter (PNU/ml), respectively. Aqueous solutions of anti-IgE antisera (rabbit-raised antibody) are purchased from Dako via Accurate Chemicals. The tripeptide f-met-leu-phe (fmlp) from Vega Biochemicals is used. The aqueous solutions of ragweed, house dust, and anti-IgE are diluted 1:2 with two times concentrated HACM and then further diluted with HACM to yield final stock concentrations of 6000 PNU/ml for ragweed and house dust, and a 1:50 dilution for the anti-IgE antisera. […]

Row | Compound | inhibition at 33 µM [%]
1 | COc1ccc(C(=O)Nc2nnn[nH]2)c(OC(C)C)c1 [Example 1, 4-Methoxy-2-(1-methylethoxy)-N-1H-tetrazol-5-ylbenzamide] | 41
2 | COc1ccc(C(=O)Nc2nnn[nH]2)c(OC(C)C)c1I [Example 4, 3-Iodo-4-methoxy-2-(1-methylethoxy)-N-1H-tetrazol-5-ylbenzamide] | 73
3 | COc1ccc(C(=O)Nc2nnn[nH]2)c(OC(C)C)c1Br [Example 2, 3-Bromo-4-methoxy-2-(1-methylethoxy)-N-1H-tetrazol-5-ylbenzamide] | 60
4 | COc1cc(OC(C)C)c(C(=O)Nc2nnn[nH]2)cc1Br [Example 3, 5-Bromo-4-methoxy-2-(1-methylethoxy)-N-1H-tetrazol-5-ylbenzamide] | 28
